In ChEMBL document CHEMBL1201862, “PubChem BioAssay data set” (2004):
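The compound was tested at five concentrations on cells cultured in 96-well plates, with a 48-hour exposure period. Abbreviation: GI50, concentration required for 50% inhibition of growth.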 The source made the active and inactive calls. Rule as the data show it: active = GI50 up to about 1.1 µM and inactive = higher.

Assays:
Assay in all cases: NCI tumour cell line growth inhibition, 48 h
[1] = system: 786-0
[2] = system: A498
[3] = system: A549
[4] = system: ACHN
[5] = system: BT-549
[6] = system: COLO 205
[7] = system: DU-145
[8] = system: EKVX
[9] = system: HCC 2998
[10] = system: HCT-116
[11] = system: HCT-15
[12] = system: HL-60
[13] = system: HOP-62
[14] = system: HOP-92
[15] = system: HT-29
[16] = system: Hs-578T
[17] = system: IGROV-1
[18] = system: K562
[19] = system: KM12
[20] = system: M14
[21] = system: MCF7
[22] = system: MDA-MB-231
[23] = system: MDA-MB-435
[24] = system: MDA-N
[25] = system: MOLT-4
[26] = system: NCI-H226
[27] = system: NCI-H23
[28] = system: NCI-H460
[29] = system: NCI/ADR-RES
[30] = system: OVCAR-3
[31] = system: OVCAR-4
[32] = system: OVCAR-5
[33] = system: OVCAR-8
[34] = system: RPMI-8226
[35] = system: RXF 393
[36] = system: SF-268
[37] = system: SF-295
[38] = system: SF-539
[39] = system: SK-MEL-28
[40] = system: SK-MEL-2
[41] = system: SK-MEL-5
[42] = system: SK-OV-3
[43] = system: SN12C
[44] = system: SNB-19
[45] = system: SNB-75
[46] = system: SW-620
[47] = system: T47D
[48] = system: TK-10
[49] = system: U-251
[50] = system: UACC-257
[51] = system: UACC-62
[52] = system: UO-31
[53] = system: CAKI-1
[54] = system: CCRF-CEM
[55] = system: LOX IMVI
[56] = system: Malme-3M
[57] = system: NCI-H522
[58] = system: SR
[59] = system: PC-3

Measured: GI50

O=C1CSC(c2c[nH]c3ccccc23)N1c1ccc(Cl)cc1 (configuration not stated)
inactive: [1] > 100 µM | [2] > 100 µM | [3] > 100 µM | [4] > 100 µM | [5] > 100 µM | [6] > 100 µM | [7] > 100 µM | [8] 59.7 µM | [9] > 100 µM | [10] > 100 µM | [12] > 100 µM | [13] > 100 µM | [14] 2.85 µM | [15] > 100 µM | [16] > 100 µM | [17] > 100 µM | [18] > 100 µM | [19] > 100 µM | [20] > 100 µM | [21] > 100 µM | [22] > 100 µM | [23] > 100 µM | [24] > 100 µM | [25] > 100 µM | [26] > 100 µM | [27] > 100 µM | [28] > 100 µM | [29] > 100 µM | [30] > 100 µM | [31] > 100 µM | [32] > 100 µM | [33] > 100 µM | [34] > 100 µM | [35] > 100 µM | [36] > 100 µM | [37] > 100 µM | [38] > 100 µM | [39] > 100 µM | [40] > 100 µM | [41] > 100 µM | [42] > 100 µM | [43] > 100 µM | [44] > 100 µM | [45] 37.1 µM | [46] > 100 µM | [47] > 100 µM | [48] > 100 µM | [49] > 100 µM | [50] > 100 µM | [51] > 100 µM | [52] > 100 µM
> 100 µM: [11]

CCCCc1ccc(Nc2nc(Cl)c3[nH]cnc3n2)cc1
inactive: [1] 15.7 µM | [2] 21.4 µM | [3] 33.5 µM | [4] 20.8 µM | [5] 28.1 µM | [53] 27.2 µM | [54] 39.1 µM | [6] 24.2 µM | [7] 17.9 µM | [8] 33.8 µM | [9] 25.5 µM | [10] 16.3 µM | [12] 42.1 µM | [13] 14 µM | [14] 11.6 µM | [15] 19.9 µM | [16] 24.5 µM | [17] 25.6 µM | [18] 32.7 µM | [19] 17.1 µM | [55] 13.7 µM | [20] 20.9 µM | [21] 20.4 µM | [22] 16.6 µM | [23] 16.8 µM | [24] 21.9 µM | [25] 20.4 µM | [56] 19.3 µM | [26] 39.6 µM | [27] 17.7 µM | [57] 24.2 µM | [29] 19.3 µM | [30] 14.8 µM | [31] 34.4 µM | [32] 40.6 µM | [33] 18.4 µM | [34] 33.2 µM | [35] 17.1 µM | [36] 22 µM | [37] 17.7 µM | [38] 18.7 µM | [40] 14.6 µM | [41] 16.7 µM | [42] 34.3 µM | [43] 22.4 µM | [44] 19.1 µM | [45] 33 µM | [58] 47.8 µM | [46] 19.2 µM | [47] 11.2 µM | [48] 22.8 µM | [50] 16.2 µM | [51] 16.4 µM | [52] 23.8 µM
18 µM: [11]

Clc1ccc(C(Cc2ccccc2)c2c(Cl)nc(N3CCNCC3)nc2Cl)cc1 (configuration not stated)
4.06 µM: [11]
inactive: [1] 16.5 µM | [2] 11.9 µM | [3] 16.1 µM | [4] 13.6 µM | [5] 21.3 µM | [53] 5.13 µM | [54] 7.11 µM | [6] 1.73 µM | [7] 14.5 µM | [8] 17.9 µM | [9] 6.3 µM | [10] 8.38 µM | [12] 2.26 µM | [13] 15.7 µM | [14] 8.57 µM | [15] 2.64 µM | [16] 14.8 µM | [17] 11.9 µM | [18] 3.46 µM | [19] 7.89 µM | [55] 3.46 µM | [20] 16.2 µM | [21] 5.38 µM | [22] 12.8 µM | [23] 16.6 µM | [25] 4.01 µM | [56] 14.3 µM | [26] 22.8 µM | [27] 18.2 µM | [28] 12.1 µM | [57] 12.4 µM | [29] 15.8 µM | [30] 14.3 µM | [31] 18.6 µM | [32] 17.7 µM | [33] 12.1 µM | [59] 14.3 µM | [34] 13.7 µM | [37] 19 µM | [38] 14.5 µM | [39] 13.7 µM | [40] 16.8 µM | [41] 14.7 µM | [42] 17.7 µM | [43] 15.2 µM | [44] 15.3 µM | [45] 14.1 µM | [58] 1.63 µM | [46] 14.5 µM | [47] 12.8 µM | [48] 17.5 µM | [49] 14 µM | [50] 15.7 µM | [51] 21 µM | [52] 11.3 µM

COc1cc(C2c3cc4c(cc3OC(Nc3ccccc3)C2C)OCO4)cc(OC)c1O (configuration not stated)
3.02 µM: [11]
active: [23] 0.394 µM | [25] 0.836 µM
inactive: [1] 7.5 µM | [3] 3.85 µM | [5] 11.5 µM | [53] 8.39 µM | [6] 11.3 µM | [7] 4.02 µM | [9] 4.12 µM | [10] 3.93 µM | [12] 1.92 µM | [14] 16.7 µM | [15] 3.85 µM | [17] 4.55 µM | [18] 1.97 µM | [19] 4.41 µM | [20] 15.5 µM | [21] 4.47 µM | [22] 4.33 µM | [24] 1.18 µM | [56] 5.47 µM | [26] 19.6 µM | [27] 7.03 µM | [57] 2.35 µM | [29] 2.38 µM | [30] 4.47 µM | [31] 11.8 µM | [32] 7.96 µM | [33] 4.75 µM | [59] 2.8 µM | [34] 3.69 µM | [35] 4.45 µM | [36] 7.48 µM | [37] 4.28 µM | [38] 2.84 µM | [39] 5.57 µM | [40] 2.22 µM | [41] 3.08 µM | [43] 4.66 µM | [44] 10.6 µM | [45] 1.63 µM | [46] 3.37 µM | [47] 15.8 µM | [48] 3.49 µM | [49] 3.95 µM | [50] 7.73 µM | [51] 3.66 µM | [52] 8.38 µM
